Laboratory results published in article PMC7139405, “Real-Time 3D Imaging and Inhibition Analysis of Various Amyloid Aggregations Using Quantum Dots” (International Journal of Molecular Sciences, 2020).
pEC50: −log10 of the molar value.

Key:
Amyloid β (Aβ42) = molecular target: T1, Amyloid β (Aβ42) (Homo sapiens, UniProt P05067); test: aggregation inhibition of isolated peptide, quantum-dot fluorescence imaging (MSHTS); type: biochemical
T1 construct: gene APP
Description: aggregation inhibition of isolated peptide, quantum-dot fluorescence imaging (MSHTS) on Amyloid β (Aβ42) | RA inhibited the aggregation of Aβ and α-synuclein proteins in vitro in a dose-dependent manner

α-synuclein = molecular target: T2, α-synuclein (Homo sapiens, UniProt P37840); test: aggregation inhibition of purified protein, quantum-dot fluorescence imaging (MSHTS); type: biochemical
T2 construct: gene SNCA

T1 sequence (P05067 672-713): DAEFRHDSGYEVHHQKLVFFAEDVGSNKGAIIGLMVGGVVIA

With `O=C(/C=C/c1ccc(O)c(O)c1)O[C@H](Cc1ccc(O)c(O)c1)C(=O)O` [RA, rosmarinic acid] the pEC50 (Amyloid β (Aβ42)) was 4.69 and the pEC50 (α-synuclein) was 5.68.
